Experimental data: publication PMC7504088, ““Clicking” an Ionic Liquid to a Potent Antimicrobial Peptide: On the Route towards Improved Stability” (International Journal of Molecular Sciences, 2020)
Marks after values point to notes of the source that are not given here. Ends that are not written are not given here. Peptide text beside a SMILES is read from it. * marks the point of attachment. X1 = C[n+]1ccn(Cc2cn(CC(=O)*)nn2)c1

Assays:
[1] = test system: E. coli EC002 (MDR clinical isolate); assay type: cell-based, Escherichia coli
Description: (§1) Both the conjugate MeIm-3.1-PP4 and its parent peptide 3.1-PP4 were next screened for their antibacterial activity. Minimum inhibitory concentration (MIC) values were determined following the Clinical and Laboratory Standards Institute (CLSI) protocol, against Gram-positive (Staphylococcus aureus and Enterococcus faecalis), and Gram-negative (Pseudomonas aeruginosa, Escherichia coli and Klebsiella pneumoniae) bacteria, including both reference strains (American Type Culture Collection, ATCC), and multidrug-resistant (MDR) clinical isolates. […] Relevantly, in most cases, MIC values matched the minimum bactericidal concentration (MBC) values, highlighting a bactericidal action for both MeIm-3.1-PP4 and its parent peptide.
(§2) The MIC of the test compounds was determined according to the CLSI guidelines. Briefly, the compounds were tested in the 1–1024 µg/mL concentration range, using the microdilution method in cation-adjusted Mueller-Hinton broth (MHB II) against reference strains of P. aeruginosa ATCC 27853, E. coli ATCC 25922, S. aureus ATCC 25923, and Enterococcus faecalis ATCC 29212. MIC values were also determined against MDR clinical isolates (antibiotic resistance patterns given in Supplementary Materials, Table S1) of P. aeruginosa (PA004, Pa3, Pa4), E. coli (Ec2, EC001, EC002, EC003), K. pneumoniae (KP004, KP010), S. aureus (SA007), and Enterococcus faecalis (Ef1). Along with the MIC values, MBC values were also determined as previously reported.

[2] = test system: E. coli EC003 (MDR clinical isolate); assay type: cell-based, Escherichia coli
Description: as §1, §2

[3] = test system: E. coli ATCC 25922; assay type: cell-based, Escherichia coli
Description: as §1, §2

[4] = test system: E. coli Ec2 (MDR clinical isolate); assay type: cell-based, Escherichia coli
Description: as §1, §2

[5] = test system: E. coli EC001 (MDR clinical isolate); assay type: cell-based, Escherichia coli
Description: as §1, §2

[6] = test system: Enterococcus faecalis Ef1 (MDR clinical isolate); assay type: cell-based
Description: as §1, §2

[7] = test system: Enterococcus faecalis ATCC 29212; assay type: cell-based
Description: as §1, §2

[8] = test system: HaCaT human epidermal keratinocytes; assay type: cell-based; details: 24 h
Description: (§3) Since this type of IL-AMP conjugate is being developed for its potential interest to address infected skin lesions, a preliminary assessment of the toxicity of both the conjugate and the parent peptide towards HaCaT human epidermal keratinocytes was carried out by the 3-(4,5-dimethylthiazol-2-yl)-2,5-diphenyltetrazolium bromide (MTT) assay, as previously described by us. […] This activity was assessed in two different ways: (i) inhibition of biofilm formation, and (ii) effect on a preformed biofilm. For evaluation of the inhibition of biofilm formation, both conjugate and parent peptide were tested at MIC and sub-inhibitory concentrations (½×MIC and at ¼×MIC) following previously established procedures, and the mass of biofilm formed at these concentrations was assessed through the crystal violet assay. […] Relevantly, the absorbance measured for the control (absence of test compounds) provides confirmation that the bacterial strain used is a good biofilm producer.
The cytotoxicity of peptides to HaCat cells was evaluated using the standard MTT assay. Briefly, cells were seeded at a density of 4 × 10^4 cells/mL, respectively, in 96-well plates and incubated at 37 °C in a 5% CO2 atmosphere. […] Absorbance was read at 570 nm in FlexStation®3 Multi-Mode Microplate Reader (Molecular Devices, San Jose, CA, USA).

[9] = test system: S. aureus SA007 (MDR clinical isolate); assay type: cell-based, Staphylococcus aureus
Description: as §1, §2

[10] = test system: S. aureus ATCC 25923; assay type: cell-based, Staphylococcus aureus
Description: as §1, §2

[11] = test system: P. aeruginosa Pa4 (MDR clinical isolate); assay type: cell-based, Pseudomonas aeruginosa
Description: as §1, §2

[12] = test system: P. aeruginosa PA004 (MDR clinical isolate); assay type: cell-based, Pseudomonas aeruginosa
Description: as §1, §2

[13] = test system: P. aeruginosa ATCC 27853; assay type: cell-based, Pseudomonas aeruginosa
Description: as §1, §2

[14] = test system: P. aeruginosa Pa3 (MDR clinical isolate); assay type: cell-based, Pseudomonas aeruginosa
Description: as §1, §2

[15] = test system: K. pneumoniae KP004 (MDR clinical isolate); assay type: cell-based, Klebsiella pneumoniae
Description: as §1, §2

[16] = test system: K. pneumoniae KP010 (MDR clinical isolate); assay type: cell-based, Klebsiella pneumoniae
Description: as §1, §2

[17] = test system: K. pneumoniae KP010 biofilms; assay: Inhibition of biofilm formation, crystal violet assay; assay type: cell-based, Klebsiella pneumoniae; details: KP010, TSB, crystal violet absorbance at 595 nm, three independent experiments in triplicate
Description: as §3
The ability of the test compounds to inhibit the biofilm formation by KP010 (a MDR clinical isolate of K. pneumoniae) was assessed at the respective MIC, ^1/2×MIC and ^1/4×MIC values in tryptic soy broth (TSB) using the crystal violet assay as previously reported. […]
Figure 1 Effects of 3.1-PP4 and MeIm-3.1-PP4 on formation of K. pneumoniae KP010 biofilms (biomass quantification by crystal violet absorbance at 595 nm). […]

[18] = test system: preformed biofilms of KP010 (MDR clinical isolate of K. pneumoniae); assay: Effect on preformed biofilms, OD600 of planktonic phase; assay type: cell-based, Klebsiella pneumoniae; details: 20×MIC, 24 h at 37 °C, untreated biofilms 0.740 ± 0.047, mean ± SD of three independent experiments in triplicate
Description: Biofilm proliferation was determined by measuring the optical density (OD) of the planktonic phase of the biofilms, both treated with the test compounds and the untreated control. […] This improvement, afforded by the insertion of the imidazolium motif, is in line with previous reports of enhanced antibacterial activity when combining imidazolium ILs with non-peptide antibiotics, like ampicillin, including against resistant bacterial strains.
To assess the effects of test compounds on 48 h preformed biofilms of KP010, the biofilms were first grown in TSB from a starting inoculum of 1 × 10^6 CFU/mL in 96-well microtiter plates. After 48 h of incubation at 37 °C, the planktonic cells were removed, and the wells were rinsed and filled with the test compound at a 20× MIC concentration. The optical density at 600 nm was measured at time 0 and after incubation for 24 h at 37 °C. The reduction in the biofilm proliferation was calculated in comparison to the respective non-treated biofilms. Three independent experiments were performed in triplicate.

[19] = test system: tyrosinase; assay: in vitro; assay type: in vitro ADME; details: mushroom (Agaricus bisporus), isolated enzyme, pH 6.8
Excerpt: One of our main motivations to explore IL-peptide conjugates concerns improving the enzymatic stability of the peptide moiety, as poor pharmacokinetics is a major obstacle towards clinical translation of AMP and other bioactive peptides, even when topical applications are envisaged. For instance, in a non-healing infected wound, peptides are vulnerable to modification by endogenous (e.g., tyrosinase, elastase, metalloproteinases) and exogenous (produced by colonizing microbes) enzymes in the wound site. […] The samples were collected at different time points, for 24 h, and were analyzed by HPLC. […]
The IL-peptide conjugate and the parent peptide were both incubated at a final concentration of 10 mM in phosphate buffer (pH 6.8), with the enzyme tyrosinase (CAS:9002-10-2; T3824-250KU) at 18 U/mL, for 24 h at 37 °C. […] The supernatant was then analyzed by HPLC, using a Hitachi-Merck LaChrom Elite system with a reverse-phase C18 column (125 × […] and 5 µm pore size). […]
Results from peptide stability were expressed as the variation of the % of starting compound over time (mean ± SD). Data were analyzed in GraphPad Prism 8.0.1 Software using two-way analysis of variance (ANOVA) followed by Tukey’s multiple comparison test. […]

Molecule | MIC [1] | MIC [2] | MIC [3] | MIC [4] | MIC [5] | MIC [6] | MIC [7] | IC50 [8] [µM] | MIC [9] | MIC [10] | MIC [11] | MIC [12] | MIC [13] | MIC [14] | MIC [15] | MIC [16] | biofilm formed at MIC ([17]; at MIC) | biofilm biomass formed at sub-inhibitory concentrations ([17]; at ½×MIC and ¼×MIC) | OD600 of planktonic phase of peptide-treated biofilms [18] | remaining at 24 h, 10 mM [19] [%]
KKLLKWLLKLLKTTKS-NH2 [3.1-PP4] | 1.3 (0.7) μg/mL | 0.6 (0.3) μg/mL | 1.3 (0.7) μg/mL | 1.3 (0.7) μg/mL | 1.3 (0.7) μg/mL | 2.3 (1.2) ^a μg/mL | 41.3 (21.3) μg/mL | 34.2 ± 0.5 | 10.3 (5.3) μg/mL | 10.3 (5.3) ^a μg/mL | 1.3 (0.7) μg/mL | 1.3 (0.7) μg/mL | 2.3 (1.2) μg/mL | 1.3 (0.7) μg/mL | 2.3 (1.2) μg/mL | 2.3 (1.2) μg/mL | – | – | – | –
CC(C)C[C@H](NC(=O)[C@H](CCCCN)NC(=O)[C@H](CCCCN)NC(=O)Cn1cc(Cn2cc[n+](C)c2)nn1)C(=O)N[C@@H](CC(C)C)C(=O)N[C@@H](CCCCN)C(=O)N[C@@H](Cc1c[nH]c2ccccc12)C(=O)N[C@@H](CC(C)C)C(=O)N[C@@H](CC(C)C)C(=O)N[C@@H](CCCCN)C(=O)N[C@@H](CC(C)C)C(=O)N[C@@H](CC(C)C)C(=O)N[C@@H](CCCCN)C(=O)N[C@H](C(=O)N[C@H](C(=O)N[C@@H](CCCCN)C(=O)N[C@@H](CO)C(N)=O)[C@@H](C)O)[C@@H](C)O [MeIm-3.1-PP4] (X1-KKLLKWLLKLLKTTKS-NH2) | 1.5 (0.7) μg/mL | 1.5 (0.7) μg/mL | 0.8 (0.4) μg/mL | 1.5 (0.7) μg/mL | 3.1 (1.4) μg/mL | 3.1 (1.4) μg/mL | 99.3 (46.3) μg/mL | 19.4 ± 0.2 | 12.4 (5.8) μg/mL | 24.8 (11.6) ^a μg/mL | 0.8 (0.4) μg/mL | 3.1 (1.4) μg/mL | 1.5 (0.7) μg/mL | 1.5 (0.7) μg/mL | 49.6 (23.1) μg/mL | 6.2 (2.9) μg/mL | only a little amount of biofilm was formed | lower than the control | 0.497± 0.050 | ~84
